Patent publication US11944622B2 (Annapurna Bio, Inc., priority 2018, dated 2024)

Biological target: T1, APJ Receptor (Homo sapiens, UniProt P35414)
T1 sequence (P35414 1-380): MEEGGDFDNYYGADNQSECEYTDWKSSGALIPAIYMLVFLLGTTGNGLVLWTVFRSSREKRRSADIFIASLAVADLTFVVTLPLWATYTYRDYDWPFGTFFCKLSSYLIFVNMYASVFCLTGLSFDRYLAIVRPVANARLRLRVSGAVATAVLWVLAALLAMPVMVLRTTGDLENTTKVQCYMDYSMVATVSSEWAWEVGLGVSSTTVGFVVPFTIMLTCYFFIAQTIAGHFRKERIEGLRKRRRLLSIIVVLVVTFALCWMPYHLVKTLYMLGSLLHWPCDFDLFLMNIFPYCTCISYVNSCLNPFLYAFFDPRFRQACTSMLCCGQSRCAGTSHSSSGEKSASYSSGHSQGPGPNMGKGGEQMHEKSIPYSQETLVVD
Assay: APJ cAMP assay (DiscoverX enzyme fragment complementation; inhibition of forskolin-stimulated cAMP)
Assay type: cell-based
Details: CHO-K1 cell line stably expressing the APJ Receptor; EC80 forskolin; 30 minutes at 37° C.; read-out: Potency Range (APJ cAMP EC50)
Text: Activation of APJ receptor is known to inhibit forskolin-stimulated cyclic AMP (cAMP) production in cells in a pertussis toxin-sensitive manner which indicates primary coupling to the GαI subunit of the G protein heterotrimeric complex. In addition to signaling through G protein and inhibition of cAMP, APJ receptor activation also results in β-arrestin recruitment, receptor internalization and activation of extracellular-regulated kinases (ERKs).
In order to optimize functional activity directed toward Gi coupling we utilized a CHO-K 1 cell line developed by DiscoverX stably expressing the APJ Receptor. Cells expressing APJR receptor were plated in a 384-well microtiter plates and incubated overnight at 37° C. with 5% CO2 to allow the cells to attach and grow. Media was then aspirated from the cells and replaced with 15 uL 2:1 Hanks Balanced Salt Solution (HBSS)/10 mM Hepes:cAMP XS+Ab reagent. Five microliters (5 uL) of previously generated compound sample stocks at 4× final concentration in assay buffer containing 4× EC80 forskolin were then added to the cells and allowed to incubate at 37° C. for 30 minutes.
After incubation the assay signal was generated using a technology termed enzyme fragment complementation (EFC). In EFC the enzyme B-galactosidase is split into two complementary portions (EA and ED). The fragment ED is fused to cAMP and in the assay format competes with endogenous cAMP for binding to a cAMP specific antibody. Activated B-Gal is formed when exogenous EA fragment binds to free ED-cAMP (not bound to cAMP specific antibody). Activated enzyme levels are detected through conversion of B-gal chemiluminescent substrate which generates a detectable luminescence signal and read on standard microtiter plate.
The methodology for detection of cAMP using EFC requires incubation with 20 uL of cAMP XS+ED/CL lysis cocktail for one hour followed by incubation with 20 uL cAMP XS+EA reagent for three hours at room temperature. Microplates were read following signal generation with a PerkinElmer Envision instrument utilizing chemiluminescent signal detection.
Compound activity was analyzed using CBIS data analysis suite (ChemInnovation, CA). Percentage activity was calculated using the following formula: % Activity=100%×(1−(mean RLU of test sample−mean RLU of Max control)/(mean RLU of vehicle control−mean RLU of Max control))

| Compound | EC50 |
| --- | --- |
| CCOc1cccc(-c2nc3ncc(NCc4ccccc4)nc3n2-c2c(OC)cccc2OC)n1 [Example 13, N-benzyl-1-(2,6-dimethoxyphenyl)-2-(6-ethoxypyridin-2-yl)-1H-imidazo[4,5-b]pyrazin-6-amine] | 0.001 to 0.1 µM |
| CCOc1cccc(-c2nc3ncc(NC(=O)Cc4ccccc4)nc3n2-c2c(OC)cccc2OC)n1 [Example 14, N-(1-(2,6-dimethoxyphenyl)-2-(6-ethoxypyridin-2-yl)-1H-imidazo[4,5-b]pyrazin-6-yl)-2-phenylacetamide] | 0.001 to 0.1 µM |
| CCOc1cccc(-c2nc3nc(Cl)cnc3n2-c2c(OC)cccc2OC)n1 [Example 15, 5-chloro-1-(2,6-dimethoxyphenyl)-2-(6-ethoxypyridin-2-yl)-1H-imidazo[4,5-b]pyrazine] | 0.1 to 10 µM |
| CCOc1cccc(-c2nc3nc(N)cnc3n2-c2c(OC)cccc2OC)n1 [Example 16, 1-(2,6-dimethoxyphenyl)-2-(6-ethoxypyridin-2-yl)-1H-imidazo[4,5-b]pyrazin-5-amine] | 0.001 to 0.1 µM |
| CCOc1cccc(-c2nc3nc(NC(=O)Cc4ccccc4)cnc3n2-c2c(OC)cccc2OC)n1 [Example 17, N-(1-(2,6-dimethoxyphenyl)-2-(6-ethoxypyridin-2-yl)-1H-imidazo[4,5-b]pyrazin-5-yl)-2-phenylacetamide] | 0.001 to 0.1 µM |
| CCOc1cccc(-c2nc3nccnc3n2-c2c(OC)cccc2OC)n1 [Example 18, 1-(2,6-dimethoxyphenyl)-2-(6-ethoxypyridin-2-yl)-1H-imidazo[4,5-b]pyrazine] | 0.1 to 10 µM |
| CCOc1cccc(-c2cc3ncc(NS(C)(=O)=O)nc3n2-c2c(OC)cccc2OC)n1 [Example 19, N-(5-(2,6-dimethoxyphenyl)-6-(6-ethoxypyridin-2-yl)-5H-pyrrolo[2,3-b]pyrazin-3-yl)methanesulfonamide] | 0.1 to 10 µM |
| CCOc1cccc(-c2nc3ncc(NS(C)(=O)=O)cc3n2-c2c(OC)cccc2OC)n1 [Example 20, N-(1-(2,6-dimethoxyphenyl)-2-(6-ethoxypyridin-2-yl)-1H-imidazo[4,5-b]pyridin-6-yl)methanesulfonamide] | 0.001 to 0.1 µM |
| CCOc1cccc(-c2nc3nnc(NS(C)(=O)=O)cc3n2-c2c(OC)cccc2OC)n1 [Example 21, N-(5-(2,6-dimethoxyphenyl)-6-(6-ethoxypyridin-2-yl)-5H-imidazo[4,5-c]pyridazin-3-yl)methanesulfonamide] | 0.001 to 0.1 µM |
| CCOc1cccc(-c2nc3ncc(NS(=O)(=O)C4CC4)nc3n2-c2c(OC)cccc2OC)n1 [Example 22, N-(1-(2,6-dimethoxyphenyl)-2-(6-ethoxypyridin-2-yl)-1H-imidazo[4,5-b]pyrazin-6-yl)cyclopropanesulfonamide] | 0.001 to 0.1 µM |
| CCOc1cccc(-c2nc3ncc(NS(=O)(=O)c4ccccn4)nc3n2-c2c(OC)cccc2OC)n1 [Example 23, N-(1-(2,6-dimethoxyphenyl)-2-(6-ethoxypyridin-2-yl)-1H-imidazo[4,5-b]pyrazin-6-yl)pyridine-2-sulfonamide] | < 0.001 µM |
| CCOc1cccc(-c2nc3ncc(NS(=O)(=O)c4cccnc4)nc3n2-c2c(OC)cccc2OC)n1 [Example 24, N-(1-(2,6-dimethoxyphenyl)-2-(6-ethoxypyridin-2-yl)-1H-imidazo[4,5-b]pyrazin-6-yl)pyridine-3-sulfonamide] | 0.001 to 0.1 µM |
| CCOc1cccc(-c2nc3ncc(NS(=O)(=O)c4ccncc4)nc3n2-c2c(OC)cccc2OC)n1 [Example 25, N-(1-(2,6-dimethoxyphenyl)-2-(6-ethoxypyridin-2-yl)-1H-imidazo[4,5-b]pyrazin-6-yl)pyridine-4-sulfonamide] | 0.001 to 0.1 µM |
| CCOc1cccc(-c2nc3ncc(NS(=O)(=O)Cc4cccnc4)nc3n2-c2c(OC)cccc2OC)n1 [Example 26, N-(1-(2,6-dimethoxyphenyl)-2-(6-ethoxypyridin-2-yl)-1H-imidazo[4,5-b]pyrazin-6-yl)-1-(pyridin-3-yl)methanesulfonamide] | 0.001 to 0.1 µM |
| CCOc1cccc(-c2nc3ncc(NS(=O)(=O)Cc4ccccn4)nc3n2-c2c(OC)cccc2OC)n1 [Example 27, N-(1-(2,6-dimethoxyphenyl)-2-(6-ethoxypyridin-2-yl)-1H-imidazo[4,5-b]pyrazin-6-yl)-1-(pyridin-2-yl)methanesulfonamide] | 0.001 to 0.1 µM |
| CCOc1cccc(-c2nc3ncc(NS(=O)(=O)Cc4ncccn4)nc3n2-c2c(OC)cccc2OC)n1 [Example 28, N-(1-(2,6-dimethoxyphenyl)-2-(6-ethoxypyridin-2-yl)-1H-imidazo[4,5-b]pyrazin-6-yl)-1-(pyrimidin-2-yl)methanesulfonamide] | < 0.001 µM |
| CCOc1cccc(-c2nc3ncc(NS(=O)(=O)CCC4CC4)nc3n2-c2c(OC)cccc2OC)n1 [Example 29, 2-cyclopropyl-N-(1-(2,6-dimethoxyphenyl)-2-(6-ethoxypyridin-2-yl)-1H-imidazo[4,5-b]pyrazin-6-yl)ethanesulfonamide] | < 0.001 µM |
| CCOc1cccc(-c2nc3ncc(NS(=O)(=O)C4COC4)nc3n2-c2c(OC)cccc2OC)n1 [Example 30, N-(1-(2,6-dimethoxyphenyl)-2-(6-ethoxypyridin-2-yl)-1H-imidazo[4,5-b]pyrazin-6-yl)oxetane-3-sulfonamide] | 0.001 to 0.1 µM |
| CCOc1cccc(-c2nc3ncc(NS(=O)(=O)C4CCC4)nc3n2-c2c(OC)cccc2OC)n1 [Example 31, N-(1-(2,6-dimethoxyphenyl)-2-(6-ethoxypyridin-2-yl)-1H-imidazo[4,5-b]pyrazin-6-yl)cyclobutanesulfonamide] | 0.001 to 0.1 µM |
| CCOc1cccc(-c2nc3ncc(N(C)S(C)(=O)=O)nc3n2-c2c(OC)cccc2OC)n1 [Example 32, N-(1-(2,6-dimethoxyphenyl)-2-(6-ethoxypyridin-2-yl)-1H-imidazo[4,5-b]pyrazin-6-yl)-N-methylmethanesulfonamide] | 0.1 to 10 µM |
| CCOc1cccc(-c2nc3ncc(NS(=O)(=O)[C@H]4C[C@@H](O)C4)nc3n2-c2c(OC)cccc2OC)n1 [Example 33, cis-N-(1-(2,6-dimethoxyphenyl)-2-(6-ethoxypyridin-2-yl)-1H-imidazo[4,5-b]pyrazin-6-yl)-3-hydroxycyclobutane-1-sulfonamide] | 0.001 to 0.1 µM |
| CCOc1cccc(-c2nc3ncc(NS(=O)(=O)[C@H]4C[C@H](O)C4)nc3n2-c2c(OC)cccc2OC)n1 [Example 34, trans-N-(1-(2,6-dimethoxyphenyl)-2-(6-ethoxypyridin-2-yl)-1H-imidazo[4,5-b]pyrazin-6-yl)-3-hydroxycyclobutane-1-sulfonamide] | 0.001 to 0.1 µM |
| CCOc1cccc(-c2nc3ncc(NS(=O)(=O)Cc4cncnc4)nc3n2-c2c(OC)cccc2OC)n1 [Example 35, N-(1-(2,6-dimethoxyphenyl)-2-(6-ethoxypyridin-2-yl)-1H-imidazo[4,5-b]pyrazin-6-yl)-1-(pyrimidin-5-yl)methanesulfonamide] | 0.001 to 0.1 µM |
| CCOc1cccc(-c2nc3ncc(NS(=O)(=O)C4CCOCC4)nc3n2-c2c(OC)cccc2OC)n1 [Example 36, N-(1-(2,6-dimethoxyphenyl)-2-(6-ethoxypyridin-2-yl)-1H-imidazo[4,5-b]pyrazin-6-yl)tetrahydro-2H-pyran-4-sulfonamide] | 0.001 to 0.1 µM |
| CCOc1cccc(-c2nc3ncc(NS(=O)(=O)N4CCOCC4)nc3n2-c2c(OC)cccc2OC)n1 [Example 37, N-(1-(2,6-dimethoxyphenyl)-2-(6-ethoxypyridin-2-yl)-1H-imidazo[4,5-b]pyrazin-6-yl)morpholine-4-sulfonamide] | < 0.001 µM |
| CCOc1cccc(-c2nc3ncc(NS(=O)(=O)CC4CCNCC4)nc3n2-c2c(OC)cccc2OC)n1 [Example 38, N-(1-(2,6-dimethoxyphenyl)-2-(6-ethoxypyridin-2-yl)-1H-imidazo[4,5-b]pyrazin-6-yl)-1-(piperidin-4-yl)methanesulfonamide] | 0.001 to 0.1 µM |
| CCOc1cccc(-c2nc3ncc(NS(=O)(=O)[C@H]4CC[C@H](O)CC4)nc3n2-c2c(OC)cccc2OC)n1 [Example 39, trans-N-(1-(2,6-dimethoxyphenyl)-2-(6-ethoxypyridin-2-yl)-1H-imidazo[4,5-b]pyrazin-6-yl)-4-hydroxycyclohexane-1-sulfonamide] | < 0.001 µM |
